Measurements reported in patent publication US9670193B2 (Novartis AG, priority 2011, dated 2017).

Experiments:
Type in all cases: biochemical
Conditions in all cases: 5 μM substrate, 2 hours at room temperature
Human recombinant HDAC4 = Human recombinant HDAC4 (Homo sapiens (Human), UniProt P56524); assay: HDAC4 assay (Test 1), fluorescence, acetyl-Gly-Ala-Lys(ε-trifluoroacetyl)-AMC substrate
Experimental: Test 1: HDAC4 Assay Description
(§1) Human recombinant HDAC4 was expressed in full length form (aa 2-1084) in Sf9 insect cells (obtained from ATCC) using baculovirus generated with Bac-to-Bac system (Invitrogen). Test compounds were serially diluted to reach final test concentrations from 0.000128 μM to 10 μM. HDAC4 and test compounds were incubated in 25 mM Tris buffer pH 8.0 containing 137 mM NaCl, 2.7 mM KCl, 1 mM MgCl2, 0.05% (w/v) bovine serum albumine and 0.005% (v/v) Triton-X-100 for 2 hours at room temperature in presence of 5 μM of acetyl-Gly-Ala-Lys(ε-trifluoroacetyl)-AMC (AMC=7-amino-4-methyl coumarin) in a final volume of 9 μl. Control wells with HDAC4 only (positive control) and without HDAC4 (negative control) were included on the microplate. Bovine trypsin (4.5 μl of a 300 nM solution) was added and the plate incubated for additional 15 minutes at room temperature. The plate was placed in a fluorescence microplate reader, and read at an excitation wavelength of 360 nm and an emission wavelength of 450 nm with a 10 nm bandpath. Fluorescence values for all wells containing HDAC4 (positive control and wells with test compound) were corrected by subtracting negative control fluorescence values, and IC50 values were calculated by fitting the dose-response curves to a 4-parameter logistic function.

[1] = biological target: Human recombinant full length HDAC1 (Homo sapiens (Human), UniProt Q13547); assay: HDAC1 assay (Test 2), acetyl-Gly-Ala-Lys(acetyl)-AMC substrate
Experimental: as §1
Test 2: HDAC1 Assay Description
A similar assay procedure as described in Test 1 was used for HDAC1. Human recombinant full length HDAC1 expressed in a baculovirus expression system was purchased from BPS BioSciences (San Diego, Calif., U.S.A.). The substrate used in the […] assay was 5 μM of acetyl-Gly-Ala-Lys(acetyl)-AMC.

[2] = biological target: Human recombinant full length HDAC6 (Homo sapiens (Human), UniProt Q9UBN7); assay: HDAC6 assay (Test 3), acetyl-Gly-Ala-Lys(acetyl)-AMC substrate
Experimental: as §1
Test 3: HDAC6 Assay Description
A similar assay procedure as described in Test 1 was used for HDAC6. Human recombinant full length HDAC6 expressed in a baculovirus expression system was purchased from BPS BioSciences (San Diego, Calif., U.S.A.). The substrate used in the […] assay was 5 μM of acetyl-Gly-Ala-Lys (acetyl)-AMC.

Human recombinant full length HDAC6, sequence (Q9UBN7 whole entry): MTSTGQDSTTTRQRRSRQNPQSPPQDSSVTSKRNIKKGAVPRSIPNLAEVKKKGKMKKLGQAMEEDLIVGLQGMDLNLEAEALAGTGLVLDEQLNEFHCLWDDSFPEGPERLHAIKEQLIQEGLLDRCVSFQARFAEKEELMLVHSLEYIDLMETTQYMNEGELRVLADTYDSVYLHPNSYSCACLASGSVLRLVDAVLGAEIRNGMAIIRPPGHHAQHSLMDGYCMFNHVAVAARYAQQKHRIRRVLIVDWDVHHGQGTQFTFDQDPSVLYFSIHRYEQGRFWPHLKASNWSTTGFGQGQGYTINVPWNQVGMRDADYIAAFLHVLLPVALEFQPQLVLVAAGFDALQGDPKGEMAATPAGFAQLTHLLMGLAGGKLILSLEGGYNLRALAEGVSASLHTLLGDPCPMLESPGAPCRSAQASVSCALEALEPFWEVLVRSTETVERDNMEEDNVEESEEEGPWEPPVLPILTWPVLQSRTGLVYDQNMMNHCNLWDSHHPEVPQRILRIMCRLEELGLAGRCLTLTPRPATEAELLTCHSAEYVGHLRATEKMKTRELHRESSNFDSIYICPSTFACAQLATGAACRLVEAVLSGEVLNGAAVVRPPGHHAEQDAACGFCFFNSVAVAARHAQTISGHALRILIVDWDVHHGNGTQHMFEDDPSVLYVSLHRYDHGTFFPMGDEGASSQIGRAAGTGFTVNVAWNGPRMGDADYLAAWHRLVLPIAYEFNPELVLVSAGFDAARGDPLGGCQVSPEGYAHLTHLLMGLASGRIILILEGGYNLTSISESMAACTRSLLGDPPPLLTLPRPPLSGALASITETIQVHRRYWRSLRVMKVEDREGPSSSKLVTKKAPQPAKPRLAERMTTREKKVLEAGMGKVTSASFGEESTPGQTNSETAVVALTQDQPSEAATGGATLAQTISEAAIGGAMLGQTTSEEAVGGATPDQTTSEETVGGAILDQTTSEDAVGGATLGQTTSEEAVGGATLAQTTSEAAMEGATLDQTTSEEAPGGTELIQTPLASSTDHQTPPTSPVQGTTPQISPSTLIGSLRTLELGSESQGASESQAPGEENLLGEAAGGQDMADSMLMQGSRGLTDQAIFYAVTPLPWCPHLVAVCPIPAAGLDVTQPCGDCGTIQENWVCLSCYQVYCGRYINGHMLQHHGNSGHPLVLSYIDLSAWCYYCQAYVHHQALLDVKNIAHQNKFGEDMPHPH
Human recombinant full length HDAC1, sequence (Q13547 whole entry): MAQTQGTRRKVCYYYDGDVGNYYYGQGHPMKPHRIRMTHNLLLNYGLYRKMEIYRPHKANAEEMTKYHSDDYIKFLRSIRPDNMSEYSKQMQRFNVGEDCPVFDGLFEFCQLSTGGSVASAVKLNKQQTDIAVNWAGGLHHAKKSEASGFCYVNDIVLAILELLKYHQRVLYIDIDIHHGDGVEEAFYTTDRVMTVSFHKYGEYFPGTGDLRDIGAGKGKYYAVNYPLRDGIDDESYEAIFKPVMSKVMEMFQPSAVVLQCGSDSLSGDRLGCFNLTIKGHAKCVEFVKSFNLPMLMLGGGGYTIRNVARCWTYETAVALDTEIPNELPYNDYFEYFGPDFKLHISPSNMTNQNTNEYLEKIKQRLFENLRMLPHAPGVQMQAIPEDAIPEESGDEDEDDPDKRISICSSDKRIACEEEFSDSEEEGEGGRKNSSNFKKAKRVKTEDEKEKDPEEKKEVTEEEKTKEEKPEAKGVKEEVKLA
Human recombinant HDAC4, sequence (P56524 2-1084): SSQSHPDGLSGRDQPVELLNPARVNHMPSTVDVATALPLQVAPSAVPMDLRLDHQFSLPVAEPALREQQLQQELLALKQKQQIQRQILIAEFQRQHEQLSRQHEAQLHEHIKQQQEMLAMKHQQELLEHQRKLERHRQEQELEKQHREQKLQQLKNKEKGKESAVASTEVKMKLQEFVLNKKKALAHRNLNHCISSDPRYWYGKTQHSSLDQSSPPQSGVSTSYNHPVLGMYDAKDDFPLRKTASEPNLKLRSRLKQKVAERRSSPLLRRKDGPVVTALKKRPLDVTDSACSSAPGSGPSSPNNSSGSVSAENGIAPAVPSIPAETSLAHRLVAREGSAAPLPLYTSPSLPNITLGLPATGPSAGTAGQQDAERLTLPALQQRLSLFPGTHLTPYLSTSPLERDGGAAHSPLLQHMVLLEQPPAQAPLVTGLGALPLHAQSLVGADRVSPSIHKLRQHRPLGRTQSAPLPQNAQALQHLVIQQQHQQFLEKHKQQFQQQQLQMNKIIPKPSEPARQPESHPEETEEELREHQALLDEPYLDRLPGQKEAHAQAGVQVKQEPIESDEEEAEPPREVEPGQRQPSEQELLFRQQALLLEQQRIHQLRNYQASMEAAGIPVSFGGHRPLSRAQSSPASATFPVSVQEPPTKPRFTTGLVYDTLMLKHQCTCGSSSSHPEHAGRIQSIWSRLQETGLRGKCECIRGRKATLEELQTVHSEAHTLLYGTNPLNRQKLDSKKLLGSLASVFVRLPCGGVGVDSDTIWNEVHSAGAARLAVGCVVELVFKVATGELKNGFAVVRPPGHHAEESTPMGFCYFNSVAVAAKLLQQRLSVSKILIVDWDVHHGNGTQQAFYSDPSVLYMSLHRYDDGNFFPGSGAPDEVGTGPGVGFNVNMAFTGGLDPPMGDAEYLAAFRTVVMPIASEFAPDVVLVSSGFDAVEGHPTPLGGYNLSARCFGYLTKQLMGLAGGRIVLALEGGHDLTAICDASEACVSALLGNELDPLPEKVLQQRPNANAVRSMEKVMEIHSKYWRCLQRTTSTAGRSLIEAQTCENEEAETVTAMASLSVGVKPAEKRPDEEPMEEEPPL

SMILES | IC50 (Human recombinant HDAC4) [nM] | IC50 [1] [µM] | IC50 [2] [nM]
CC(=O)Nc1cnc(-c2noc(C(F)(F)F)n2)cn1 [Example 1, N-(5-(5-(trifluoromethyl)-1,2,4-oxadiazol-3-yl)pyrazin-2-yl)acetamide] | 460 | > 10 | 1700
N#Cc1ccc(C(=O)Nc2cnc(-c3noc(C(F)(F)F)n3)cn2)cc1 [Example 2, 4-Cyano-N-(5-(5-(trifluoromethyl)-1,2,4-oxadiazol-3-yl)pyrazin-2-yl)benzamide] | 1400 | > 10 | 2600
FC(F)(F)c1nc(-c2cnc(NCc3ccncc3)nc2)no1 [Example 6, N-(pyridin-4-ylmethyl)-5-(5-(trifluoromethyl)-1,2,4-oxadiazol-3-yl)pyrimidin-2-amine] | 44 | 0.62 | 990
CC(Nc1ncc(-c2noc(C(F)(F)F)n2)cn1)c1ccccc1 (stereo not drawn) [Example 7, N-(1-phenylethyl)-5-(5-(trifluoromethyl)-1,2,4-oxadiazol-3-yl)pyrimidin-2-amine] | 120 | > 10 | > 400
Cc1ccc(CNc2ncc(-c3noc(C(F)(F)F)n3)cn2)cn1 [Example 8, N-((6-methylpyridin-3-yl)methyl)-5-(5-(trifluoromethyl)-1,2,4-oxadiazol-3-yl)pyrimidin-2-amine] | 25 | 3 | 250
FC(F)(F)c1nc(-c2cnc(NCc3cccnc3)nc2)no1 [Example 10, N-(pyridin-3-ylmethyl)-5-(5-(trifluoromethyl)-1,2,4-oxadiazol-3-yl)pyrimidin-2-amine] | 140 | 6.6 | 1100
Cc1cccc(CNc2ncc(-c3noc(C(F)(F)F)n3)cn2)n1 [Example 11, N-((6-methylpyridin-2-yl)methyl)-5-(5-(trifluoromethyl)-1,2,4-oxadiazol-3-yl)pyrimidin-2-amine] | 240 | 0.51 | 550
C[C@@H](Nc1ncc(-c2noc(C(F)(F)F)n2)cn1)c1ccccc1 [Example 12, (R)—N-(1-phenylethyl)-5-(5-(trifluoromethyl)-1,2,4-oxadiazol-3-yl)pyrimidin-2-amine] | 49 | 3.5 | 340
CN(CCc1ccncc1)c1ncc(-c2noc(C(F)(F)F)n2)cn1 [Example 14, N-methyl-N-(2-(pyridin-4-yl)ethyl)-5-(5-(trifluoromethyl)-1,2,4-oxadiazol-3-yl)pyrimidin-2-amine] | 110 | 7.6 | > 10000
Cc1cc(C(C)Nc2ncc(-c3noc(C(F)(F)F)n3)cn2)ccn1 (stereo not drawn) [Example 16] | 44 | 1.6 | 350
C[C@H](CN(C)C)NC(=O)c1ccc(-c2noc(C(F)(F)F)n2)nc1 [Example 18, (R)—N-(1-(dimethylamino)propan-2-yl)-6-(5-(trifluoromethyl)-1,2,4-oxadiazol-3-yl)nicotinamide] | 250 | > 10 | > 10000
CC(CN(C)C)NC(=O)c1ccc(-c2noc(C(F)(F)F)n2)nc1 (stereo not drawn) [Example 19, N-(1-(dimethylamino)propan-2-yl)-6-(5-(trifluoromethyl)-1,2,4-oxadiazol-3-yl)nicotinamide] | 350 | 1.7 | > 10000
C[C@@H](CO)NC(=O)c1ccc(-c2noc(C(F)(F)F)n2)nc1 [Example 20, (S)—N-(1-hydroxypropan-2-yl)-6-(5-(trifluoromethyl)-1,2,4-oxadiazol-3-yl)nicotinamide] | 4300 | > 10 | > 10000
CCN(CC)C[C@H](NC(=O)c1ccc(-c2noc(C(F)(F)F)n2)nc1)C(C)C [Example 22, (R)—N-(1-(diethylamino)-3-methylbutan-2-yl)-6-(5-(trifluoromethyl)-1,2,4-oxadiazol-3-yl)nicotinamide] | 160 | > 10 | > 10000
C[C@H](CN(C)C)NC(=O)c1ccc(-c2noc(C(F)(F)F)n2)cn1 [Example 24, (R)—N-(1-(dimethylamino)propan-2-yl)-5-(5-(trifluoromethyl)-1,2,4-oxadiazol-3-yl)picolinamide] | 990 | > 10 | > 10000
C[C@H](CN(C)C)NC(=O)c1ncc(-c2noc(C(F)(F)F)n2)cc1Cl [Example 25, (R)-3-chloro-N-(1-(dimethylamino)propan-2-yl)-5-(5-(trifluoromethyl)-1,2,4-oxadiazol-3-yl)picolinamide] | 3600 | > 10 | > 10000
C[C@H](CN(C)C)NC(=O)c1cnc(-c2noc(C(F)(F)F)n2)nc1 [Example 26, (R)—N-(1-(dimethylamino)propan-2-yl)-2-(5-(trifluoromethyl)-1,2,4-oxadiazol-3-yl)pyrimidine-5-carboxamide] | 420 | > 10 | > 10000
FC(F)(F)c1nc(-c2ccc(NCc3ccccc3)cn2)no1 [Example 27, N-benzyl-6-(5-(trifluoromethyl)-1,2,4-oxadiazol-3-yl)pyridin-3-amine] | 2800 | 9.6 | > 10000
FC(F)(F)c1nc(-c2ccc(NCc3ccccc3)nc2)no1 [Example 28, N-benzyl-5-(5-(trifluoromethyl)-1,2,4-oxadiazol-3-yl)pyridin-2-amine] | 73 | > 10 | 3000

Further lines, results first:

IC50 (Human recombinant HDAC4) [nM] | IC50 [1] [µM] | IC50 [2] [nM] | SMILES
39 | 3.2 | 6700 | CN(Cc1ccncc1)c1ncc(-c2noc(C(F)(F)F)n2)cn1 [Example 3, N-methyl-N-(pyridin-4-ylmethyl)-5-(5-(trifluoromethyl)-1,2,4-oxadiazol-3-yl)pyrimidin-2-amine]
36 | > 10 | 320 | FC(F)(F)c1nc(-c2cnc(NCc3ccccc3)nc2)no1 [Example 4, N-benzyl-5-(5-(trifluoromethyl)-1,2,4-oxadiazol-3-yl)pyrimidin-2-amine]
40 | 1.7 | 2100 | CN(Cc1ccnc(Cl)c1)c1ncc(-c2noc(C(F)(F)F)n2)cn1 [Example 5, N-((2-chloropyridin-4-yl)methyl)-N-methyl-5-(5-(trifluoromethyl)-1,2,4-oxadiazol-3-yl)pyrimidin-2-amine]
22 | 4.1 | 560 | CC(Nc1ncc(-c2noc(C(F)(F)F)n2)cn1)c1ccncc1 (stereo not drawn) [Example 9, N-(1-(pyridin-4-yl)ethyl)-5-(5-(trifluoromethyl)-1,2,4-oxadiazol-3-yl)pyrimidin-2-amine]
22 | 1.7 | 140 | CC[C@@H](Nc1ncc(-c2noc(C(F)(F)F)n2)cn1)c1ccccc1 [Example 13, (R)—N-(1-phenylpropyl)-5-(5-(trifluoromethyl)-1,2,4-oxadiazol-3-yl)pyrimidin-2-amine]
20 | 2.6 | 210 | CCC(Nc1ncc(-c2noc(C(F)(F)F)n2)cn1)c1ccncc1 (stereo not drawn) [Example 15, N-(1-(pyridin-4-yl)propyl)-5-(5-(trifluoromethyl)-1,2,4-oxadiazol-3-yl)pyrimidin-2-amine]
34 | 2.2 | 3500 | Cc1cc(CN(C)c2ncc(-c3noc(C(F)(F)F)n3)cn2)ccn1 [Example 17, N-methyl-N-((2-methylpyridin-4-yl)methyl)-5-(5-(trifluoromethyl)-1,2,4-oxadiazol-3-yl)pyrimidin-2-amine]
18 | > 10 | > 10000 | C[C@H](CN(C)Cc1ccccc1)NC(=O)c1ccc(-c2noc(C(F)(F)F)n2)nc1 [Example 21, (R)—N-(1-(benzyl(methyl)amino)propan-2-yl)-6-(5-(trifluoromethyl)-1,2,4-oxadiazol-3-yl)nicotinamide]
28 | > 10 | > 10000 | CCN(CC)C[C@@H](C)NC(=O)c1ccc(-c2noc(C(F)(F)F)n2)nc1 [Example 23, (R)—N-(1-(diethylamino)propan-2-yl)-6-(5-(trifluoromethyl)-1,2,4-oxadiazol-3-yl)nicotinamide]
27 | 6.2 | 640 | CC(Nc1ccc(-c2noc(C(F)(F)F)n2)cn1)c1ccccc1 (stereo not drawn) [Example 29, N-(1-phenylethyl)-5-(5-(trifluoromethyl)-1,2,4-oxadiazol-3-yl)pyridin-2-amine]
